Test results published in patent publication US20110230471A1, “BENZONAPHTYRIDINE COMPOUNDS AS INHIBITORS OF AUTOTAXIN” (MERCK PATENT GESELLSCHAFT MIT BESCHRANKTER HAFTUNG, priority 2008, published 2011).

Target: T1, recombinant autotaxin (Homo sapiens, UniProt Q13822)
T1 construct: made in house; host or cells: Hi5 insect cells (baculovirus)
Experiment: Autotaxin test (enzyme test), Amplex Red
Type: biochemical
Conditions: Autotaxin inhibition (enzyme test), TABLE 1 (A compounds); substrate LPC 75 μM
Experimental: The autotaxin activity is measured indirectly using Amplex Red reagent. Amplex Red is measured here as fluorogenic indicator for the H2O2 formed. In detail, autotaxin converts the substrate lysophosphatidylcholine (LPC) into phosphocholine and lysophosphatidylic acid (LPA). After this reaction, the phosphocholine is reacted with alkaline phosphatase to give inorganic phosphate and choline. In the next step, choline is oxidised by choline oxidase to give betaine, with formation of H2O2. H2O2 reacts with Amplex Red reagent in the presence of peroxidase (horseradish peroxidase) in a 1:1 stoichiometry and forms the highly fluorescent resorufin. The fluorescence is measured in a reaction-dependent kinetic mode in order that fluorescent signals from possible other fluorescent substances which are not involved in the reaction can be corrected out.
1.5 μl of a standard solution or of the test substances (substances with the name A(n))in individual concentrations dissolved in 20 mM Hepes pH 7.2 with a maximum of 7.7% of DMSO are pre-incubated together with 10 μl (16 ng) of highly purified recombinant autotaxin in a black microtitre plate provided with 384 wells at 22° C. for 30 min. The reaction is then initiated by addition of 5 μl of L-α-lysophosphatidylcholine (LPC), where the final concentration of LPC is 75 μM. The mixture is incubated at 37° C. for 90 min. After the incubation, Amplex Red reagent, peroxidase (horseradish peroxidase) and choline oxidase is added, and the fluorescence is immediately measured at 612 nm with excitation of 485 nm in a “Tecan Ultra multimode” reader. The activity of autotaxin is calculated indirectly via detection of the H2O2 formed.
• Microtitre plate: PS microplate, 384 wells, small volume, black Corning, Cat#3677 • Protein: recombinant autotaxin (Baculovirale Hi5 Expression) • Substrate: L-α-lysophosphatidylcholine (chicken egg)); Avanti Polar Lipids # 830071 P • Standard: C14 LPA, Avanti Polar Lipids, Cat# 857120P • Detection reagent: Amplex Red reagent; Invitrogen # A12222; dissolved in 1.923 ml of DMSO peroxidase type VI-A (horseradish) from Sigma # P6782; dissolved in 7.45 ml of test buffer, choline oxidase; Sigma # C5896; dissolved in 2.47 ml of test buffer • Detection reagent mix: 1:100 dilution of Amplex Red reagent in test buffer • Test buffer: 200 mM Tris HCl, Merck, Cat # 1.08219, pH 7.9, 0.1% of BSA, lipid-free, Roche Cat#775835

Row | IC50 | Structure (SMILES)
1 | 100 to 1000 nM | O=C(CN1CCc2nc3ccccc3c(C(=O)N3CCOCC3)c2C1)Nc1ccc(Cl)cc1O [Compound A53, N-(4-Chloro-2-hydroxyphenyl)-2-[10-(morpholine-4-carbonyl)-3,4-dihydro-1H-benzo[b][1,6]naphthyridin-2-yl]acetamide]
2 | < 100 nM | COc1ccc(Cl)cc1NC(=O)CN1CCc2nc3ccccc3c(C(=O)N3CCN(C)CC3)c2C1 [Compound A1, N-(5-chloro-2-methoxyphenyl)-2-[10-(4-methylpiperazine-1-carbonyl)-3,4-dihydro-1H-benzo[b][1,6]naphthyridin-2-yl]acetamide]
3 | 100 to 1000 nM | O=C(CN1CCc2nc3ccccc3c(C(=O)N3CCOCC3)c2C1)Nc1cc(Br)cc2ccoc12 [Compound A43, N-(5-Bromobenzofuran-7-yl)-2-[10-(morpholine-4-carbonyl)-3,4-dihydro-1H-benzo[b][1,6]naphthyridin-2-yl]acetamide]
4 | 100 to 1000 nM | COc1ccc(Cl)cc1NC(=O)CN1CCc2nc3ccccc3c(C(=O)N3CCN(Cc4ccccc4)CC3)c2C1 [Compound A30, 2-[10-(4-Benzylpiperazine-1-carbonyl)-3,4-dihydro-1H-benzo[b][1,6]naphthyridin-2-yl]-N-(5-chloro-2-methoxyphenyl)acetamide]
5 | > 1000 nM | O=C(CN1CCc2nc3ccccc3c(C(=O)N3CCOCC3)c2C1)Nc1cccc2ccoc12 [Compound A45, N-Benzofuran-7-yl-2-[10-(morpholine-4-carbonyl)-3,4-dihydro-1H-benzo-[b][1,6]naphthyridin-2-yl]acetamide]
6 | > 1000 nM | O=C(CN1CCc2nc3ccccc3c(C(=O)N3CCN(CCO)CC3)c2C1)Nc1ccc(F)c(Cl)c1 [Compound A74, N-(3-Chloro-4-fluorophenyl)-2-{10-[4-(2-hydroxyethyl)piperazine-1-carbonyl]-3,4-dihydro-1H-benzo[b][1,6]naphthyridin-2-yl}acetamide]
7 | < 100 nM | COc1ccc(Cl)cc1NC(=O)CN1CCc2nc3ccccc3c(C(=O)N3CCN(CCN(C)C)CC3)c2C1 [Compound A67, N-(5-Chloro-2-methoxyphenyl)-2-{10-[4-(2-dimethylaminoethyl)piperazine-1-carbonyl]-3,4-dihydro-1H-benzo[b][1,6]naphthyridin-2-yl}acetamide]
8 | < 100 nM | COc1ccc(Br)cc1NC(=O)CN1CCc2nc3ccccc3c(C(=O)N3CCOCC3)c2C1 [Compound A13, N-(5-Bromo-2-methoxyphenyl)-2-[10-(morpholine-4-carbonyl)-3,4-dihydro-1H-benzo[b][1,6]naphthyridin-2-yl]acetamide]
9 | 100 to 1000 nM | O=C(CN1CCc2nc3ccccc3c(C(=O)N3CCOCC3)c2C1)Nc1cc(Cl)ccc1OCCO [Compound A54, N-[5-Chloro-2-(2-hydroxyethoxy)phenyl]-2-[10-(morpholine-4-carbonyl)-3,4-dihydro-1H-benzo[b][1,6]naphthyridin-2-yl]acetamide]
10 | > 1000 nM | CC(C)Oc1ccc(Cl)cc1NC(=O)CN1CCc2nc3ccccc3c(C(=O)N3CCN(CCO)CC3)c2C1 [Compound A60, N-(5-Chloro-2-isopropoxyphenyl)-2-{10-[4-(2-hydroxyethyl)piperazine-1-carbonyl]-3,4-dihydro-1H-benzo[b][1,6]naphthyridin-2-yl}acetamide]
11 | > 1000 nM | Cc1ccc(NC(=O)CN2CCc3nc4ccccc4c(C(=O)N4CCN(CCO)CC4)c3C2)cc1Cl [Compound A73, N-(3-Chloro-4-methylphenyl)-2-{10-[4-(2-hydroxyethyl)piperazine-1-carbonyl]-3,4-dihydro-1H-benzo[b][1,6]naphthyridin-2-yl}acetamide]
12 | > 1000 nM | O=C(CN1CCc2nc3ccccc3c(C(=O)N3CCN(CCO)CC3)c2C1)Nc1ccc(N2CCCC2=O)c(Cl)c1 [Compound A64, N-[3-Chloro-4-(2-oxopyrrolidin-1-yl)phenyl]-2-{10-[4-(2-hydroxyethyl)-piperazine-1-carbonyl]-3,4-dihydro-1H-benzo[b][1,6]naphthyridin-2-yl}-acetamide]
13 | > 1000 nM | CCOc1ncc(Cl)cc1NC(=O)CN1CCc2nc3ccccc3c(C(=O)N3CCOCC3)c2C1 [Compound A52, N-(5-Chloro-2-ethoxypyridin-3-yl)-2-[10-(morpholine-4-carbonyl)-3,4-dihydro-1H-benzo[b][1,6]naphthyridin-2-yl]acetamide]
14 | 100 to 1000 nM | COc1ccc(Cl)cc1N(C)C(=O)CN1CCc2nc3ccccc3c(C(=O)N3CCOCC3)c2C1 [Compound A87, N-(5-Chloro-2-methoxyphenyl)-N-methyl-2-[10-(morpholine-4-carbonyl)-3,4-dihydro-1H-benzo[b][1,6]naphthyridin-2-yl]acetamide]
15 | > 1000 nM | COc1ccccc1NC(=O)CN1CCc2nc3ccccc3c(C(=O)N3CCOCC3)c2C1 [Compound A10, N-(2-Methoxyphenyl)-2-[10-(morpholine-4-carbonyl)-3,4-dihydro-1H-benzo-[b][1,6]naphthyridin-2-yl]acetamide]

Same assay, conditions: Autotaxin inhibition (enzyme test), TABLE 2 (B compounds); substrate LPC 75 μM

Row | IC50 | Structure (SMILES)
16 | > 1000 nM | COc1ccc(Cl)cc1-c1nnc(CN2CCc3nc4ccccc4c(C(=O)NCC[N+](C)(C)Cc4nnc(-c5cc(Cl)ccc5OC)o4)c3C2)o1 [Compound B30, [5-(5-Chloro-2-methoxyphenyl)-1,3,4-oxadiazol-2-ylmethyl]-[2-({2-[5-(5-chloro-2-methoxyphenyl)-1,3,4-oxadiazol-2-ylmethyl]-1,2,3,4-tetrahydrobenzo[b][1,6]naphthyridine-10-carbonyl}amino)ethyl]dimethylammonium]
17 | > 1000 nM | COCCNC(=O)c1c2c(nc3ccccc13)CCN(Cc1nnc(-c3cc(Cl)ccc3OC)o1)C2 [Compound B31, N-(2-Methoxyethyl)-2-[5-(5-chloro-2-methoxyphenyl)-1,3,4-oxadiazol-2-yl-methyl]-1,2,3,4-tetrahydrobenzo[b][1,6]naphthyridine-10-carboxamide]
18 | > 1000 nM | CN1CCC(NC(=O)c2c3c(nc4ccccc24)CCN(CCC(=O)Nc2cc(Cl)ccc2N)C3)CC1 [Compound B37]
19 | 100 to 1000 nM | COc1c(F)cc(Br)cc1NC(=O)CN1CCc2nc3ccccc3c(C(=O)N3CCOCC3)c2C1 [Compound B24, N-(5-Bromo-3-fluoro-2-methoxyphenyl)-2-[10-(morpholine-4-carbonyl)-3,4-dihydro-1H-benzo[b][1,6]naphthyridin-2-yl]acetamide]
20 | > 1000 nM | CCNC(=O)c1c2c(nc3ccccc13)CCN(Cc1nnc(-c3cc(Cl)ccc3OC)o1)C2 [Compound B32, N-Ethyl-2-[5-(5-chloro-2-methoxyphenyl)-1,3,4-oxadiazol-2-ylmethyl]-1,2,3,4-tetrahydrobenzo[b][1,6]naphthyridine-10-carboxamide]
21 | > 1000 nM | O=C(CN1CCc2nc3ccccc3c(C(=O)N3CCN(CCO)CC3)c2C1)Nc1cccc(-c2ccccc2)c1 [Compound B21, N-Biphenyl-3-yl-2-{10-[4-(2-hydroxyethyl)piperazine-1-carbonyl]-3,4-dihydro-1H-benzo[b][1,6]naphthyridin-2-yl}acetamide]
22 | > 1000 nM | COc1ccc(Cl)cc1NC(=O)CN1CCc2nc3ccccc3c(C(=O)NC3CCCNC3)c2C1 (stereo not shown) [Compound B53, N-Piperidin-3-yl-2-[(5-chloro-2-methoxyphenylcarbamoyl)methyl]-1,2,3,4-tetrahydrobenzo[b][1,6]naphthyridine-10-carboxamide]
23 | > 1000 nM | COc1ccc(Cl)cc1-c1nnc(CN2CCc3nc4ccccc4c(C(=O)NCCN(C)C)c3C2)o1 [Compound B29, N-(2-Dimethylaminoethyl)-2-[5-(5-chloro-2-methoxyphenyl)-1,3,4-oxadiazol-2-ylmethyl]-1,2,3,4-tetrahydrobenzo[b][1,6]naphthyridine-10-carboxamide]
24 | > 1000 nM | COc1c(F)cc(-c2ccc(N)cc2)cc1NC(=O)CN1CCc2nc3ccccc3c(C(=O)N3CCOCC3)c2C1 [Compound B35, N-(4′-Amino-5-fluoro-4-methoxybiphenyl-3-yl)-2-[10-(morpholine-4-carbonyl)-3,4-dihydro-1H-benzo[b][1,6]naphthyridin-2-yl]acetamide]
25 | 100 to 1000 nM | COc1ccc(Cl)cc1NC(=O)CN1CCc2nc3ccccc3c(C(=O)NC3CCOCC3)c2C1 [Compound B43, N-(Tetrahydropyran-4-yl)-2-[(5-chloro-2-methoxyphenylcarbamoyl)methyl]-1,2,3,4-tetrahydrobenzo[b][1,6]naphthyridine-10-carboxamide]
